{
  "source": "patent US20210228525A1",
  "about": "“Methods of Administering Monomethyl Fumarate and Prodrugs Thereof Having Reduced Side Effects” (Arbor Pharmaceuticals, LLC, priority 2012, published 2021)",
  "assay": "Randomized double-blind crossover food effect single-dose study: safety and tolerability (flushing, feeling hot)",
  "type": "in vivo, human",
  "conditions": "for Subjects reporting flushing: fasted group; for Subjects reporting feeling hot more than for placebo: fed or fasted groups",
  "from_the_text": "(§1) Twenty-four healthy adult volunteers (males and females) participated in the study. Twelve of the subjects received a dosage form of Example 3, once in a fed condition and once in a fasted condition, with a two-week washout between treatments. The fasted dosing was achieved by dosing the subject following an overnight fast while the fed dosing was achieved by dosing the subject after consuming a high fat-content breakfast.\nas §1, with “Twelve” for “Twenty-four”, “All twelve” for “Twelve of the”, “5,” for “3,”\nas §1, with “Twelve” for “Twenty-four”, “All twelve” for “Twelve of the”, “10,” for “3,”",
  "key": {"[1]": {"conditions": "Example 3 dosage form, 200 mg single dose"}, "[2]": {"conditions": "Example 5 dosage form, 200 mg single dose"}, "[3]": {"conditions": "Example 10 dosage form, single dose"}},
  "data": [
    {"smiles": "CCN(CC)C(=O)COC(=O)/C=C/C(=O)OC", "note": "[Compound (1), (N,N-Diethylcarbamoyl)methyl methyl (2E)but-2-ene-1,4-dioate]", "values": [
      {"measurement": "Severity of all adverse events", "setting": "[1]", "value": "mild"},
      {"measurement": "Tolerability during the trial", "setting": "[1]", "value": "well tolerated"},
      {"measurement": "Subjects reporting flushing", "setting": "Example 3 dosage form", "value": "No subjects"},
      {"measurement": "Subjects reporting flushing more frequently than in the fed placebo group", "setting": "Example 3 dosage form", "value": "One"},
      {"measurement": "Subjects reporting feeling hot more than for placebo", "setting": "Example 3 dosage form", "value": "no subjects"},
      {"measurement": "Severity of all adverse events", "setting": "[2]", "value": "mild"},
      {"measurement": "Tolerability during the trial", "setting": "[2]", "value": "well tolerated"},
      {"measurement": "Subjects reporting flushing", "setting": "Example 5 dosage form", "value": "No subjects"},
      {"measurement": "Subjects reporting flushing more frequently than in the fed placebo group", "setting": "Example 5 dosage form", "value": "Two"},
      {"measurement": "Subjects reporting feeling hot more than for placebo", "setting": "Example 5 dosage form", "value": "no subjects"},
      {"measurement": "Adverse events reported in more than one subject and more frequently than for placebo", "setting": "[3]", "value": "flushing and feeling hot"},
      {"measurement": "Severity of all adverse events", "setting": "[3]", "value": "mild"},
      {"measurement": "Tolerability during the trial", "setting": "[3]", "value": "well tolerated"}
    ]}
  ]
}
